As a reminder, the Kp is the ratio of the level in a tissue or fluid to that in plasma or blood.

Data on one compound can be found in PMC4575030 (PLoS ONE, 2015).

The test system of data set [1] is rat spinal nerve ligation model. The data set can be described thus: Tactile allodynia following spinal nerve ligation (SNL). Particulars: 30 mg/kg, 120 min after dosing, day 21 after SNL; not statistically significant (p = 0.99). The class given is in vivo. The source says:
A decrease in tactile response threshold, using calibrated von Frey filaments (Stoelting Co., Wood Dale, IL), was used as a measure of tactile allodynia following spinal nerve ligation (SNL). Prior to surgery, each animal underwent baseline testing to determine suitability for the assay. Briefly, animals were placed on a raised platform with a grid meshed floor. The distance between the mesh was ¼”. Once acclimated, each animal received a series of trials according to the up-down method described by Dixon. Animals showing a response to less than 4 g were deemed already sensitive to the stimulus and were removed. A maximal fiber of 15 g was employed as a cut-off threshold. Surgery was then performed with a procedure slightly modified by that reported by Kim and Chung. Briefly, the left L5 spinal nerve was carefully isolated from the surrounding tissue. Using 5–0 silk suture, a tight ligature was placed around L5 nerve. Muscle and skin were then closed using 4–0 absorbable suture and wound clips. Animals were allowed to recover and were carefully monitored for seven days to ensure proper healing and ensure there was no mutilation of the affected limb. On day 21 post-surgery, animals were again tested to ensure the development of tactile allodynia. […] Animals were then randomized into groups and dosed with the test compound, gabapentin, or vehicle and assessed as stated above. […]

The subject of a further data set is C-fiber nociceptors. The data set can be described thus: In vivo teased-fiber recording from tibial nerve after CFA, C-fibers. Set-up: species or system rat. Particulars: for Heat response threshold of C-fiber nociceptors: n = 9. How it is done:
(§1) A total of 55 adult, male, Sprague–Dawley rats (Harlan, Indianapolis, IN) weighing 300–350 g were used for electrophysiology. To ensure that electrophysiology studies were performed on rats with mechanical hyperalgesia, behavioral measures of mechanical hyperalgesia were obtained before and at 24 h after administration of CFA (and just prior to the electrophysiological studies). Mechanical hyperalgesia was assessed by determining the frequency of paw withdrawal evoked by mechanical stimulation using a 26 g Semmes-Weinstein von Frey monofilament (Stoelting, Wood Dale, IL). Rats were placed on an elevated wire mesh platform under individual plastic cages and acclimated to the testing environment for 30 minutes prior to testing. The monofilament was applied to the mid-plantar surface of the hindpaw ten times for 1–2 s each with an inter-stimulus interval of approximately 5–10 s and the paw withdrawal frequency (percent) was determined. Baseline measures were determined for each rat for three consecutive days prior to injection of CFA. Mechanical hyperalgesia was defined as an increase in the paw withdrawal frequency.
Rats were initially anesthetized by intramuscular injection of ketamine (100 mg/kg) and xylazine ([…]). […] Core body temperature was maintained at 37°C using a feedback-controlled heating pad (Harvard Apparatus, Holliston, MA, USA).
Recordings were made from cutaneous afferent fibers of the left tibial nerve using a teased-fiber approach. The tibial nerve was dissected from the surrounding tissue and the overlaying skin was sewn to a metal ring to form a pool that was filled with warm mineral oil. The tibial nerve was placed onto a mirror platform for fine dissection with sharpened fine forceps (Fine Science Tools, Foster City, CA, USA). Teased fibers were placed onto a tungsten wire electrode and action potentials were recorded extracellularly. […] Only fibers with clearly discriminated single action potentials were studied. Responses of individual fibers were analyzed off-line using the Spike2 data analysis program (Cambridge Electronic Design, Cambridge, UK).
Afferent fibers were found by their ongoing spontaneous activity and by mechanically stimulating the plantar surface of the hind paw with the experimenter's finger or von Frey monofilaments. Once a single fiber was identified that was excited by mild pinching but not light touch, its mechanical receptive field was marked on the skin using a felt-tipped pen.
Conduction velocity was determined by electrically stimulating the skin outside the fiber’s receptive field with pin electrodes (200 μs pulse width at 0.5 Hz) to electrically activate the fiber. The fiber was stimulated at 1.5 times its electrical threshold and the conduction latency was measured from the time of the electrical stimulus artifact to the evoked action potential. Conduction distance was determined by measuring the distance from the fiber's receptive field to the recording electrode. Conduction velocity (m/s) was calculated by dividing conduction distance by conduction latency. Fibers were classified as Aδ-fiber nociceptors if they had conduction velocities between 2.4–25.0 m/s and as C-fiber nociceptors if conduction velocity was < 2.4 m/s.
Nociceptors were classified functionally according to their responsiveness to mechanical and heat stimulation. Mechanical stimuli used to classify units included light brushing with the tip of a cotton swab, mildly pinching with a pair of forceps, and application of von Frey filaments. Mechanical response thresholds were determined using a series of von Frey monofilaments and defined as the weight (g) required to evoke at least one action potential when applied to the receptive field for 1–2 s. Heat stimuli were delivered using a feedback-controlled Peltier device (Yale Electronics, New Haven, CT) with a contact area of 1 cm^2. […]

The next data set deals with Aδ-fiber nociceptors. Nature of the data set: In vivo teased-fiber recording from tibial nerve after CFA, Aδ-fibers. On the set-up: species or system rat. To be noted: i.v. 2.5 mg. How it is done: as §1, with “Mechanical hyperalgesia was defined as an increase in the paw withdrawal frequency.” left out
Recordings were made from cutaneous afferent fibers of the left tibial nerve using a teased-fiber approach. […] Teased fibers were placed onto a tungsten wire electrode and action potentials were recorded extracellularly. […] Responses of individual fibers were analyzed off-line using the Spike2 data analysis program (Cambridge Electronic Design, Cambridge, UK). […]

A further data set relates to Nav1.7. Set-up: method as in PMID 21634377. Particulars: extrapolated; cited from earlier work.
The nature of data set [2]: Terminal plasma and brain concentrations after behavioral testing. It counts as in vivo, rat.
The next data set relates to naïve rats. Nature of the data set: Open field activity (basic movement). It counts as in vivo, rat. Particulars: formalin-naïve rats. How it is done: Basic movement was measured using the Photobeam Activity System Open Field (San Diego Instruments, San Diego, CA) equipped with 48 infrared photocell emitters and detectors. Photobeams used to measure vertical movement were positioned 14 cm above the test chamber floor. Each testing chamber was made of Plexiglas (41 x 41 x 36 cm) and was devoid of any bedding. At the beginning of the test session, each animal was placed in a separate testing chamber and the room lights were turned off. Basic movement was measured for 30 minutes.

Where [3] appears, read: 30 minutes after i.v. injection.
Where [4] appears, read: 60 minutes after i.v. injection.

`CC(=O)Nc1cccc(Nc2ncnc(N3CCC(OCc4ccc(OC(F)(F)F)cc4)CC3)n2)c1C` [Compound 52, N-(2-methyl-3-((4-(4-((4-(trifluoromethoxy)benzyl)oxy)-1-piperidinyl)-1,3,5-triazin-2-yl)amino)phenyl)acetamide]: in data set [1], the “Reversal of tactile allodynia compared to the vehicle group” value was 15%. Besides, the “Mean cumulative number of action potentials evoked by all heat stimuli, C-fibers” value in the data set on C-fiber nociceptors (setting [3]) stood at 19.2 ± 3.6; in the data set on C-fiber nociceptors (before injection), 39.2 ± 6.5. For the same compound, the “Mean number of action potentials evoked by a suprathreshold mechanical stimulus (250 mN), C-fibers” value worked out at 19.9 ± 5.4 in the data set with C-fiber nociceptors (setting [3]); 11.6 ± 3.2 in the data set with C-fiber nociceptors (setting [4]); 28.9 ± 6.2 in the data set with C-fiber nociceptors (before injection, n = 8). For the same compound, the “Mechanical response threshold of C-fiber nociceptors” value with C-fiber nociceptors (setting [3]) is 60.4 ± 9.8 mN; in the data set on C-fiber nociceptors (setting [4]), 60.1 ±9.1 mN; in the data set on C-fiber nociceptors (before injection, n = 11), 44.5 ± 7.5 mN. Besides, the “Heat response threshold of C-fiber nociceptors” value in the data set on C-fiber nociceptors (setting [3]) worked out at 47.0 °C; with C-fiber nociceptors (before injection), 45.0 °C. Also, the “Number of action potentials evoked by heat stimuli, C-fibers” value with C-fiber nociceptors (30 minutes after i.v. injection, 48°C and 50°C reduced) was “reduced the number of action potentials evoked by heat stimuli”. In the data set with C-fiber nociceptors (i.v. 2.5 mg over 15 min, remained decreased until 26 minutes), the “Time after beginning the injection at which the rate of ongoing spontaneous activity was significantly decreased” value is not above 12 min. Also, the “Spontaneous firing of C-fiber nociceptors, after compound” value in the data set with C-fiber nociceptors (one day after CFA, after i.v. 2.5 mg (approximately 8 mg/kg)) was approximately 0.2 Hz. For the same compound, the “Spontaneous firing of C-fiber nociceptors, before compound” value in the data set with C-fiber nociceptors (one day after CFA, before i.v. injection) was “approximately 0.7 Hz”. Besides, the “Mechanical response thresholds of Aδ-fiber nociceptors” value with Aδ-fiber nociceptors was “Neither vehicle nor compound 52 altered”. Further, the “Rate of ongoing spontaneous activity of Aδ-fiber nociceptors” value with Aδ-fiber nociceptors is listed as “did not reduce the rate of ongoing spontaneous activity”. Also, the “Preference for inactivated versus non-inactivated Nav1.7” value with Nav1.7 is recorded as 100 fold. For the same compound, the concentration ratio (Kp) in data set [2] (brain and plasma, rat, ratio of concentrations measured following the formalin test) came to 0.3. Further, in data set [2] (mean terminal plasma concentration at the lowest effective dose in the rat formalin test), the “Effective [plasma]” value amounted to 1.93 µM. In addition, the “Decrease in basic movement” value was 3% with naïve rats (3 mg/kg p.o.); 11% with naïve rats (10 mg/kg p.o., negative value = increase); 54% in the data set with naïve rats (30 mg/kg p.o.).
